# From patent publication US10131652B2, “Pyrimidinyloxy benzene derivatives as herbicides” (E. I. DU PONT DE NEMOURS AND COMPANY, priority 2014, dated 2018)
# Read-outs that look alike come from different tables or passages of the source.
# Columns and labels:
# Experiment in all cases: Test E pre-/postemergence plant response
# Type in all cases: in vivo
# [1] = test system: wild oat (Avena fatua); details: scale 0 to 100, read-out: Plant response rating, Oat, Wild; for pest or weed control at 16 g/ha: 16 g ai/ha; for pest or weed control at 31 g/ha: 31 g ai/ha; for pest or weed control at 62 g/ha: 62 g ai/ha; for pest or weed control at 125 g/ha: 125 g ai/ha
# Summary of the method: (§1)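 Visual scores on a 0–100 scale (100 = complete control) were assigned against untreated controls 7–21 days after treatment in a controlled environment. Compounds, formulated with solvent plus surfactant, were applied to pre-emergence silt-loam sowings or to 1- to 4-leaf plants (2–18 cm) in potting medium.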
# [2] = test system: field poppy (Papaver rhoeas); details: scale 0 to 100, read-out: Plant response rating, Field Poppy; for pest or weed control at 16 g/ha: 16 g ai/ha; for pest or weed control at 31 g/ha: 31 g ai/ha; for pest or weed control at 62 g/ha: 62 g ai/ha; for pest or weed control at 125 g/ha: 125 g ai/ha
# Summary of the method: as §1
# [3] = test system: spring wheat (Triticum aestivum); details: scale 0 to 100, read-out: Plant response rating, Wheat, Spring; for plant injury at 16 g/ha: 16 g ai/ha; for plant injury at 62 g/ha: 62 g ai/ha; for plant injury at 125 g/ha: 125 g ai/ha
# Summary of the method: as §1
# [4] = test system: deadnettle (henbit deadnettle, Lamium amplexicaule); details: scale 0 to 100, read-out: Plant response rating, Deadnettle; for pest or weed control at 16 g/ha: 16 g ai/ha; for pest or weed control at 31 g/ha: 31 g ai/ha; for pest or weed control at 62 g/ha: 62 g ai/ha; for pest or weed control at 125 g/ha: 125 g ai/ha
# Summary of the method: as §1
# [5] = test system: lambsquarters (Chenopodium album); details: scale 0 to 100, read-out: Plant response rating, Lambsquarters; for pest or weed control at 16 g/ha: 16 g ai/ha; for pest or weed control at 31 g/ha: 31 g ai/ha; for pest or weed control at 62 g/ha: 62 g ai/ha; for pest or weed control at 125 g/ha: 125 g ai/ha
# Summary of the method: as §1
# [6] = test system: canarygrass (Phalaris minor); details: scale 0 to 100, read-out: Plant response rating, Canarygrass; for pest or weed control at 16 g/ha: 16 g ai/ha; for pest or weed control at 31 g/ha: 31 g ai/ha; for pest or weed control at 62 g/ha: 62 g ai/ha; for pest or weed control at 125 g/ha: 125 g ai/ha
# Summary of the method: as §1
# [7] = test system: field violet (Viola arvensis); details: scale 0 to 100, read-out: Plant response rating, Field Violet; for pest or weed control at 16 g/ha: 16 g ai/ha; for pest or weed control at 31 g/ha: 31 g ai/ha; for pest or weed control at 62 g/ha: 62 g ai/ha; for pest or weed control at 125 g/ha: 125 g ai/ha
# Summary of the method: as §1
# [8] = test system: blackgrass (Alopecurus myosuroides); details: scale 0 to 100, read-out: Plant response rating, Blackgrass; for pest or weed control at 16 g/ha: 16 g ai/ha; for pest or weed control at 31 g/ha: 31 g ai/ha; for pest or weed control at 62 g/ha: 62 g ai/ha; for pest or weed control at 125 g/ha: 125 g ai/ha
# Summary of the method: as §1
# [9] = test system: winter wheat (Triticum aestivum); details: scale 0 to 100, read-out: Plant response rating, Wheat, Winter; for plant injury at 16 g/ha: 16 g ai/ha; for plant injury at 62 g/ha: 62 g ai/ha; for plant injury at 125 g/ha: 125 g ai/ha
# Summary of the method: as §1
# [10] = test system: spring barley (Hordeum vulgare); details: for plant injury at 16 g/ha: 16 g ai/ha; for plant injury at 31 g/ha: 31 g ai/ha; for plant injury at 62 g/ha: 62 g ai/ha; for plant injury at 125 g/ha: 125 g ai/ha
# Summary of the method: as §1
# [11] = test system: speedwell (bird's-eye speedwell, Veronica persica); details: scale 0 to 100, read-out: Plant response rating, Speedwell; for pest or weed control at 16 g/ha: 16 g ai/ha; for pest or weed control at 62 g/ha: 62 g ai/ha; for pest or weed control at 125 g/ha: 125 g ai/ha
# Summary of the method: as §1
# [12] = post-emergence, 31 g ai/ha, Postemergence
# [13] = post-emergence, Postemergence, scale 0 to 100, read-out: Plant response rating, Barley, Spring
# [14] = pre-emergence, Preemergence, scale 0 to 100, read-out: Plant response rating, Barley, Spring
structure (smiles),measurement,setting,value
"FC(F)c1cc(-c2ccccc2Oc2ncc(Cl)cn2)on1 [Compound 53, 5-chloro-2-[2-[3-(difluoromethyl)-5-isoxazolyl]phenoxy]pyrimidine]",pest or weed control at 16 g/ha,"[1]; post-emergence, Postemergence",5%
same,pest or weed control at 31 g/ha,"[1]; post-emergence, Postemergence",5%
same,pest or weed control at 62 g/ha,"[1]; post-emergence, Postemergence",10%
same,pest or weed control at 125 g/ha,"[1]; post-emergence, Postemergence",25%
same,pest or weed control at 16 g/ha,"[1]; pre-emergence, Preemergence",0%
same,pest or weed control at 31 g/ha,"[1]; pre-emergence, Preemergence",0%
same,pest or weed control at 62 g/ha,"[1]; pre-emergence, Preemergence",10%
same,pest or weed control at 125 g/ha,"[1]; pre-emergence, Preemergence",25%
same,pest or weed control at 16 g/ha,"[2]; post-emergence, Postemergence",60%
same,pest or weed control at 31 g/ha,"[2]; post-emergence, Postemergence",65%
same,pest or weed control at 62 g/ha,"[2]; post-emergence, Postemergence",80%
same,pest or weed control at 125 g/ha,"[2]; post-emergence, Postemergence",80%
same,pest or weed control at 16 g/ha,"[2]; pre-emergence, Preemergence",100%
same,pest or weed control at 31 g/ha,"[2]; pre-emergence, Preemergence",100%
same,pest or weed control at 62 g/ha,"[2]; pre-emergence, Preemergence",100%
same,pest or weed control at 125 g/ha,"[2]; pre-emergence, Preemergence",100%
same,plant injury at 16 g/ha,"[3]; post-emergence, Postemergence",10%
same,plant injury at 31 g/ha,[3]; [12],10%
same,plant injury at 62 g/ha,"[3]; post-emergence, Postemergence",20%
same,plant injury at 125 g/ha,"[3]; post-emergence, Postemergence",35%
same,plant injury at 16 g/ha,"[3]; pre-emergence, Preemergence",5%
same,plant injury at 62 g/ha,"[3]; pre-emergence, Preemergence",10%
same,plant injury at 125 g/ha,"[3]; pre-emergence, Preemergence",10%
same,pest or weed control at 16 g/ha,"[4]; post-emergence, Postemergence",20%
same,pest or weed control at 31 g/ha,"[4]; post-emergence, Postemergence",30%
same,pest or weed control at 62 g/ha,"[4]; post-emergence, Postemergence",60%
same,pest or weed control at 125 g/ha,"[4]; post-emergence, Postemergence",65%
same,pest or weed control at 16 g/ha,"[4]; pre-emergence, Preemergence",10%
same,pest or weed control at 31 g/ha,"[4]; pre-emergence, Preemergence",10%
same,pest or weed control at 62 g/ha,"[4]; pre-emergence, Preemergence",50%
same,pest or weed control at 125 g/ha,"[4]; pre-emergence, Preemergence",65%
same,pest or weed control at 16 g/ha,"[5]; post-emergence, Postemergence",65%
same,pest or weed control at 31 g/ha,"[5]; post-emergence, Postemergence",70%
same,pest or weed control at 62 g/ha,"[5]; post-emergence, Postemergence",65%
same,pest or weed control at 125 g/ha,"[5]; post-emergence, Postemergence",75%
same,pest or weed control at 16 g/ha,"[5]; pre-emergence, Preemergence",60%
same,pest or weed control at 31 g/ha,"[5]; pre-emergence, Preemergence",75%
same,pest or weed control at 62 g/ha,"[5]; pre-emergence, Preemergence",100%
same,pest or weed control at 125 g/ha,"[5]; pre-emergence, Preemergence",100%
same,pest or weed control at 16 g/ha,"[6]; post-emergence, Postemergence",5%
same,pest or weed control at 31 g/ha,"[6]; post-emergence, Postemergence",10%
same,pest or weed control at 62 g/ha,"[6]; post-emergence, Postemergence",25%
same,pest or weed control at 125 g/ha,"[6]; post-emergence, Postemergence",40%
same,pest or weed control at 16 g/ha,"[6]; pre-emergence, Preemergence",10%
same,pest or weed control at 31 g/ha,"[6]; pre-emergence, Preemergence",20%
same,pest or weed control at 62 g/ha,"[6]; pre-emergence, Preemergence",65%
same,pest or weed control at 125 g/ha,"[6]; pre-emergence, Preemergence",95%
same,pest or weed control at 16 g/ha,"[7]; post-emergence, Postemergence",25%
same,pest or weed control at 31 g/ha,"[7]; post-emergence, Postemergence",50%
same,pest or weed control at 62 g/ha,"[7]; post-emergence, Postemergence",70%
same,pest or weed control at 125 g/ha,"[7]; post-emergence, Postemergence",70%
same,pest or weed control at 16 g/ha,"[7]; pre-emergence, Preemergence",50%
same,pest or weed control at 31 g/ha,"[7]; pre-emergence, Preemergence",25%
same,pest or weed control at 62 g/ha,"[7]; pre-emergence, Preemergence",60%
same,pest or weed control at 125 g/ha,"[7]; pre-emergence, Preemergence",100%
same,pest or weed control at 16 g/ha,"[8]; post-emergence, Postemergence",0%
same,pest or weed control at 31 g/ha,"[8]; post-emergence, Postemergence",5%
same,pest or weed control at 62 g/ha,"[8]; post-emergence, Postemergence",10%
same,pest or weed control at 125 g/ha,"[8]; post-emergence, Postemergence",25%
same,pest or weed control at 16 g/ha,"[8]; pre-emergence, Preemergence",10%
same,pest or weed control at 31 g/ha,"[8]; pre-emergence, Preemergence",10%
same,pest or weed control at 62 g/ha,"[8]; pre-emergence, Preemergence",25%
same,pest or weed control at 125 g/ha,"[8]; pre-emergence, Preemergence",30%
same,plant injury at 16 g/ha,"[9]; post-emergence, Postemergence",5%
same,plant injury at 31 g/ha,[9]; [12],5%
same,plant injury at 62 g/ha,"[9]; post-emergence, Postemergence",15%
same,plant injury at 125 g/ha,"[9]; post-emergence, Postemergence",35%
same,plant injury at 16 g/ha,"[9]; pre-emergence, Preemergence",15%
same,plant injury at 62 g/ha,"[9]; pre-emergence, Preemergence",25%
same,plant injury at 125 g/ha,"[9]; pre-emergence, Preemergence",30%
same,plant injury at 16 g/ha,[10]; [13],5%
same,plant injury at 31 g/ha,[10]; [13],5%
same,plant injury at 62 g/ha,[10]; [13],10%
same,plant injury at 125 g/ha,"[10]; post-emergence, Postemergence, scale 0 to 100 (0 no effect, 100 complete control), read-out: Plant response rating, Barley, Spring",10%
same,plant injury at 16 g/ha,[10]; [14],35%
same,plant injury at 31 g/ha,[10]; [14],35%
same,plant injury at 62 g/ha,[10]; [14],35%
same,plant injury at 125 g/ha,[10]; [14],35%
same,pest or weed control at 16 g/ha,"[11]; post-emergence, Postemergence",60%
same,pest or weed control at 31 g/ha,[11]; [12],60%
same,pest or weed control at 62 g/ha,"[11]; post-emergence, Postemergence",95%
same,pest or weed control at 125 g/ha,"[11]; post-emergence, Postemergence",100%
same,pest or weed control at 16 g/ha,"[11]; pre-emergence, Preemergence",100%
same,pest or weed control at 62 g/ha,"[11]; pre-emergence, Preemergence",100%
same,pest or weed control at 125 g/ha,"[11]; pre-emergence, Preemergence",100%
